Source: patent US8859535B2, “Hydroxy substituted isoquinolinone derivatives” (Novartis AG, priority 2011, dated 2014)

What was measured:
[1] = molecular target: T1, human MDM2 protein (amino acids 2-188) (Homo sapiens, UniProt Q00987); assay: p53-MDM2 TR-FRET assay (p53-MDM2 Assay 1); type: binding; conditions: 1.25 nM MDM2-biotinylated, 10 nM Cy5-p53 peptide; read-out: IC50 (μM) of p53-Hdm2 inhibition (TR-FRET) Assay 1
T1 construct: human MDM2 protein (amino acids 2-188); made in house
Procedure: (§1) Time Resolved Fluorescence Energy Transfer (TR-FRET) Assay
(§2) The inhibition of p53-MDM2 and p53-MDM4 interactions is measured by time resolved fluorescence energy transfer (TR-FRET). Fluorescence energy transfer (or Foerster resonance energy transfer) describes an energy transfer between donor and acceptor fluorescent molecules. For this assay, human MDM2 protein (amino acids 2-188) and human MDM4 protein (amino acids 2-185), tagged with a C-terminal biotin moiety, are used in combination with a Europium labeled streptavidin (Perkin Elmer, Inc., Waltham, Mass., USA) serving as the donor fluorophore. The p53 derived, Cy5 labeled peptide Cy5-TFSDLWKLL (p53 aa18-26) is the energy acceptor. Upon excitation of the donor molecule at 340 nm, binding interaction between MDM2 or MDM4 and the p53 peptide induces energy transfer and enhanced response at the acceptor emission wavelength at 665 nm. Disruption of the formation of the p53-MDM2 or p53-MDM4 complex due to an inhibitor molecule binding to the p53 binding site of MDM2 or MDM4 results in increased donor emission at 620 nm. The ratiometric FRET assay readout is calculated from the raw data of the two distinct fluorescence signals measured in time resolved mode (fluorescence 665 nm/fluorescence 620 nm×1000).
(§3) After addition of 1.25 nM MDM2-biotinylated or 2.5 nM MDM4-biotinylated (internal preparations), and 0.625 nM Europium labeled streptavidin (Perkin Elmer), the solution is pre-incubated for 15 minutes at room temperature, then 10 nM Cy5-p53 peptide (internal preparation) is added before an incubation at room temperature for 15 minutes prior to reading the plate. For measurement of samples, a Victor II microplate reader (Perkin Elmer) is used with the following settings: Excitation 340 nm, Emission Donor 620 nm and Emission Acceptor 665 nm. IC50 values are calculated by curve fitting using XLfit. If not specified, reagents are purchased from Sigma-Aldrich Chemie GmBH, Buchs, Switzerland.
(§4) This assay was used to evaluate compounds displaying inhibition of p53-MDM2 interaction and p53-MDM4 interaction at IC50s of 0.005 to 50 μM (p53-MDM2 Assay 1 and p53-MDM4 Assay 1, respectively). For selected compounds displaying IC50s between […] on MDM2, a slightly modified assay is used with the following adaptations: 0.1 nM MDM2, 0.1 nM Europium labeled streptavidin and Tecan genios Pro is used as a microplate reader for the fluorescence measurements (p53-MDM2 Assay 2).

[2] = molecular target: T2, human MDM4 protein (amino acids 2-185) (Homo sapiens, UniProt O15151); assay: p53-MDM4 TR-FRET assay (p53-MDM4 Assay 1); type: binding; conditions: 2.5 nM MDM4-biotinylated, 10 nM Cy5-p53 peptide; read-out: IC50 (μM) of p53-Hdm4 inhibition (TR-FRET) Assay 1
T2 construct: human MDM4 protein (amino acids 2-185); made in house
T2 sequence (O15151 2-185): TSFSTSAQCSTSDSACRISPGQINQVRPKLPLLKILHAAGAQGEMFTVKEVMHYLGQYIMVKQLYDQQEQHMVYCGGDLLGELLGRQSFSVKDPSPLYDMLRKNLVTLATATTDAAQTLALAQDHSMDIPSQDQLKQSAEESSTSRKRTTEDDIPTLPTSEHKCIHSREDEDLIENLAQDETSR
Procedure: as §1, §2, §3, §4

T1 sequence (Q00987 2-188): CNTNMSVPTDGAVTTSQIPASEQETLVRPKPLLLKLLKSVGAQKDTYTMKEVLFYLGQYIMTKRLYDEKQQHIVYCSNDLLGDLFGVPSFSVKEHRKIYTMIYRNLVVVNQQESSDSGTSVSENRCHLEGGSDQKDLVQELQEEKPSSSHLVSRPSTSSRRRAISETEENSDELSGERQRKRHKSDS

| IC50 [1] [µM] | IC50 [2] [µM] | Structure (SMILES) |
| --- | --- | --- |
| 0.383 | 84 | COc1cc2c(cc1OC(C)C)[C@H](c1ccc(Cl)cc1)N(c1ccc([C@](C)(O)C3CCOCC3)c(F)c1)C(=O)C2 (single isomer, unassigned) [Example 38] |
| 0.0023 | 1.52 | COc1cc2c(cc1OC(C)C)[C@H](c1ccc(Cl)cc1)N(c1ccc([C@@](C)(O)C3CCOCC3)c(F)c1)C(=O)C2 (single isomer, unassigned) [Example 39] |
| 0.005 | 7.17 | COc1cc2c(cc1OC(C)C)[C@H](c1ccc(Cl)cc1)N(c1ccc([C@@](C)(O)C3CCC(F)(F)CC3)cc1)C(=O)C2 (single isomer, unassigned) [Example 47] |
| 0.0017 | 1.62 | COc1cc2c(cc1OC(C)C)[C@H](c1ccc(Cl)cc1)N(c1ccc([C@@](C)(O)C3CCN(C(C)=O)CC3)cc1)C(=O)C2 (single isomer, unassigned) [Example 53] |
| 0.105 | 36.7 | COc1cc2c(cc1OC(C)C)[C@H](c1ccc(Cl)cc1)N(c1ccc([C@](C)(O)C3CCN(C(C)=O)CC3)cc1)C(=O)C2 (single isomer, unassigned) [Example 54] |
| 0.129 | 49.9 | COc1cc2c(cc1OC(C)C)[C@H](c1ccc(Cl)cc1)N(c1ccc([C@](C)(O)C3CCN(C)CC3)cc1)C(=O)C2 (single isomer, unassigned) [Example 95] |
| 0.0025 | 2.96 | COc1cc2c(cc1OC(C)C)[C@H](c1ccc(Cl)cc1)N(c1ccc([C@@](C)(O)C34CCC(CC3)O4)cc1)C(=O)C2 (single isomer, unassigned) [Example 136] |
| 0.145 | 25.7 | COc1cc2c(cc1OC(C)C)[C@H](c1ccc(Cl)cc1)N(c1ccc([C@](C)(O)C34CCC(CC3)O4)cc1)C(=O)C2 (single isomer, unassigned) [Example 137] |
| 0.0054 | 13.2 | COc1cc2c(cc1OC(C)C)[C@H](c1ccc(Cl)cc1)N(c1ccc([C@@](C)(O)C34CC5CC(CC(C5)C3)C4)cc1)C(=O)C2 (single isomer, unassigned) [Example 142] |
| 0.0432 | 70.8 | COc1cccc(C(C)(O)c2ccc(N3C(=O)Cc4cc(OC)c(OC(C)C)cc4[C@@H]3c3ccc(Cl)cc3)cc2)c1 (stereo partly drawn) [Example 1, (S)-1-(4-Chloro-phenyl)-2-{4-[1-hydroxy-1-(3-methoxy-phenyl)-ethyl]-phenyl}-7-isopropoxy-6-methoxy-1,4-dihydro-2H-isoquinolin-3-one] |
| 0.0868 | 87 | COc1cccc(C(O)c2ccc(N3C(=O)Cc4cc(OC)c(OC(C)C)cc4[C@@H]3c3ccc(Cl)cc3)cc2)c1 (stereo partly drawn) [Example 2, (S)-1-(4-Chloro-phenyl)-2-{4-[hydroxy-(3-methoxy-phenyl)-methyl]-phenyl}-7-isopropoxy-6-methoxy-1,4-dihydro-2H-isoquinolin-3-one] |
| 0.0267 | 18.9 | CCC(C)(O)c1ccc(N2C(=O)Cc3cc(OC)c(OC(C)C)cc3[C@@H]2c2ccc(Cl)cc2)cc1 (stereo partly drawn) [Example 3, (S)-1-(4-Chloro-phenyl)-2-[4-(1-hydroxy-1-methyl-propyl)-phenyl]-7-isopropoxy-6-methoxy-1,4-dihydro-2H-isoquinolin-3-one] |
| 0.0107 | 17.3 | COc1ccc(C(O)c2ccc(N3C(=O)Cc4cc(OC)c(OC(C)C)cc4[C@@H]3c3ccc(Cl)cc3)cc2)cc1 (stereo partly drawn) [Example 4, (S)-1-(4-Chloro-phenyl)-2-{4-[hydroxy-(4-methoxy-phenyl)-methyl]-phenyl}-7-isopropoxy-6-methoxy-1,4-dihydro-2H-isoquinolin-3-one] |
| 0.0082 | 10.5 | COc1ccc(C(C)(O)c2ccc(N3C(=O)Cc4cc(OC)c(OC(C)C)cc4[C@@H]3c3ccc(Cl)cc3)cc2)cc1 (stereo partly drawn) [Example 5, (S)-1-(4-Chloro-phenyl)-2-{4-[1-hydroxy-1-(4-methoxy-phenyl)-ethyl]-phenyl}-7-isopropoxy-6-methoxy-1,4-dihydro-2H-isoquinolin-3-one] |
| 0.0343 | 61.8 | COc1cc2c(cc1OC(C)C)[C@H](c1ccc(Cl)cc1)N(c1ccc(C(C)(O)c3ccc(F)cc3)cc1)C(=O)C2 (stereo partly drawn) [Example 6, (S)-1-(4-Chloro-phenyl)-2-{4-[1-(4-fluoro-phenyl)-1-hydroxy-ethyl]-phenyl}-7-isopropoxy-6-methoxy-1,4-dihydro-2H-isoquinolin-3-one] |
| 0.132 | 49.3 | COc1ccc(C(O)(c2ccc(N3C(=O)Cc4cc(OC)c(OC(C)C)cc4[C@@H]3c3ccc(Cl)cc3)cc2)C(F)(F)F)cc1 (stereo partly drawn) [Example 7, (S)-1-(4-Chloro-phenyl)-7-isopropoxy-6-methoxy-2-{4-[2,2,2-trifluoro-1-hydroxy-1-(4-methoxy-phenyl)-ethyl]-phenyl}-1,4-dihydro-2H-isoquinolin-3-one] |
| 0.0316 | 61.3 | COc1cc2c(cc1OC(C)C)[C@H](c1ccc(Cl)cc1)N(c1ccc(C(O)C3CCCCC3)cc1)C(=O)C2 (stereo partly drawn) [Example 8, (S)-1-(4-Chloro-phenyl)-2-[4-(cyclohexyl-hydroxy-methyl)-phenyl]-7-isopropoxy-6-methoxy-1,4-dihydro-2H-isoquinolin-3-one] |
| 0.0555 | 51.6 | COc1cc2c(cc1OC(C)C)[C@H](c1ccc(Cl)cc1)N(c1ccc(C(C)(C)O)cc1)C(=O)C2 [Example 11, (S)-1-(4-Chloro-phenyl)-2-[4-(1-hydroxy-1-methyl-ethyl)-phenyl]-7-isopropoxy-6-methoxy-1,4-dihydro-2H-isoquinolin-3-one] |
| 0.0195 | 23.9 | COc1cc2c(cc1OC(C)C)[C@H](c1ccc(Cl)cc1)N(c1ccc(C(C)(O)c3ccncc3)cn1)C(=O)C2 (stereo partly drawn) [Example 12, (S)-1-(4-Chloro-phenyl)-2-[5-(1-hydroxy-1-pyridin-4-yl-ethyl)-pyridin-2-yl]-7-isopropoxy-6-methoxy-1,4-dihydro-2H-isoquinolin-3-one] |
| 0.0608 | 82.7 | COc1cc2c(cc1OC(C)C)[C@H](c1ccc(Cl)cc1)N(c1ccc(C(C)(O)c3cn(C)cn3)cc1)C(=O)C2 (stereo partly drawn) [Example 13, (S)-1-(4-Chloro-phenyl)-2-{4-[1-hydroxy-1-(1-methyl-1H-imidazol-4-yl)-ethyl]-phenyl}-7-isopropoxy-6-methoxy-1,4-dihydro-2H-isoquinolin-3-one] |
| 0.0494 | 53.7 | COc1cc2c(cc1OC(C)C)[C@H](c1ccc(Cl)cc1)N(c1ccc(C(C)(O)c3ccn(C)n3)cc1)C(=O)C2 (stereo partly drawn) [Example 14, (S)-1-(4-Chloro-phenyl)-2-{4-[1-hydroxy-1-(1-methyl-1H-pyrazol-3-yl)-ethyl]-phenyl}-7-isopropoxy-6-methoxy-1,4-dihydro-2H-isoquinolin-3-one] |
| 0.0404 | 61.1 | COc1cc2c(cc1OC(C)C)[C@H](c1ccc(Cl)cc1)N(c1ccc(C(C)(O)c3cccnc3)cn1)C(=O)C2 (stereo partly drawn) [Example 15, (S)-1-(4-Chloro-phenyl)-2-[5-(1-hydroxy-1-pyridin-3-yl-ethyl)-pyridin-2-yl]-7-isopropoxy-6-methoxy-1,4-dihydro-2H-isoquinolin-3-one] |
| 0.0058 | 8.42 | COc1cc2c(cc1OC(C)C)[C@H](c1ccc(Cl)cc1)N(c1ccc(C(C)(O)c3cccnc3)cc1)C(=O)C2 (stereo partly drawn) [Example 16, (S)-1-(4-Chloro-phenyl)-2-[4-(1-hydroxy-1-pyridin-3-yl-ethyl)-phenyl]-7-isopropoxy-6-methoxy-1,4-dihydro-2H-isoquinolin-3-one] |
| 0.0068 | 7.73 | COc1cc2c(cc1OC(C)C)[C@H](c1ccc(Cl)cc1)N(c1ccc(C(C)(O)c3ccncc3)cc1)C(=O)C2 (stereo partly drawn) [Example 17, (S)-1-(4-Chloro-phenyl)-2-[4-(1-hydroxy-1-pyridin-4-yl-ethyl)-phenyl]-7-isopropoxy-6-methoxy-1,4-dihydro-2H-isoquinolin-3-one] |
